# Laboratory results reported in patent US20240217978A1 (CHONG KUN DANG PHARMACEUTICAL CORP., priority 2021, published 2024).
# Target: human adenosine A2a receptor (Homo sapiens (Human), UniProt P29274)
# Experiment: A2a receptor binding affinity, [3H]-NECA radioligand binding test
# Conditions: [3H]-NECA 37 nM; membrane from HEK-293 cells transfected with human adenosine A2a receptor
# In short: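 Membranes from HEK-293 cells expressing human A2a receptor were incubated with [3H]-NECA (final 37 nM) and compound for 1 h at room temperature in 50 mM Tris, 10 mM MgCl2, 1 mM EDTA, pH 7.4. Bound ligand was filtered on PEI-coated plates and counted by scintillation to derive IC50 (μM).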
# human adenosine A2a receptor, sequence (P29274 whole entry): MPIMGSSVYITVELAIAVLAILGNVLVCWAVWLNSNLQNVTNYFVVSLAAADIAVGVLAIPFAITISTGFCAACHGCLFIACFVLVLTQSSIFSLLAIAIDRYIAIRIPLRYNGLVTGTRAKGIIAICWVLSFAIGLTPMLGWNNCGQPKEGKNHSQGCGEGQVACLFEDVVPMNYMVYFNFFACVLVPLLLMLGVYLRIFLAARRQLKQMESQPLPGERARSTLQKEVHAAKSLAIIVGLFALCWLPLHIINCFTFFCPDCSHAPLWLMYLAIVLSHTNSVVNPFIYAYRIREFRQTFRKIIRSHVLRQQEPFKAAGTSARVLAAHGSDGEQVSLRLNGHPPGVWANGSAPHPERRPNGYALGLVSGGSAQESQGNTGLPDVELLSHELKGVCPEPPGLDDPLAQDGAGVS
row,Structure (SMILES),IC50 [nM]
1,"Nc1nc(N2CC[C@H]2C(=O)N2CCN(CC(F)(F)C(F)F)CC2)nc2nc(-c3ccco3)nn12 [Example 255, (S)-(1-(7-amino-2-(furan-2-yl)-[1,2,4]triazolo[1,5-a][1,3,5]triazin-5-yl)azetidin-2-yl)(4-(2,2,3,3-tetrafluoropropyl)piperazin-1-yl)methanone]",9
2,"Nc1nc(N2CCC[C@H]2C(=O)N2CCC(N3CC(F)(F)C3)CC2)cc2nc(-c3ccco3)nn12 [Example 400, (S)-(1-(5-amino-2-(furan-2-yl)-[1,2,4]triazolo[1,5-c]pyrimidin-7-yl)pyrrolidine-2-yl)(4-(3,3-difluoroazetidin-1-yl)piperidin-1-yl)methanone]",14
3,"CC(C)(F)CN1CCN(C(=O)CNc2nc(N)n3nc(-c4ccco4)nc3n2)CC1 [Example 388, 2-((7-amino-2-(furan-2-yl)-[1,2,4]triazolo[1,5-a][1,3,5]triazin-5-yl)amino)-1-(4-(2-fluoro-2-methylpropyl)piperazin-1-yl)ethan-1-one]",9
4,"Nc1nc(N2CCC[C@H]2C(=O)N2CCN(CC(F)(F)C(F)(F)C(F)(F)F)CC2)nc2nc(-c3ccco3)nn12 [Example 228, (S)-(1-(7-amino-2-(furan-2-yl)-[1,2,4]triazolo[1,5-a][1,3,5]triazin-5-yl)pyrrolidin-2-yl)(4-(2,2,3,3,4,4,4-heptafluorobutyl)piperazin-1-yl)methanone]",2
5,"C[C@@H]1CN(CC(F)(F)F)CCN1C(=O)[C@@H]1CCCN1c1nc(N)n2nc(-c3ccco3)nc2n1 [Example 205, ((S)-1-(7-amino-2-(furan-2-yl)-[1,2,4]triazolo[1,5-a][1,3,5]triazin-5-yl)pyrrolidin-2-yl)((R)-2-methyl-4-(2,2,2-trifluoroethyl)piperazin-1-yl)methanone]",7
6,"Nc1nc(N2CCC[C@H]2C(=O)N2CC3CCC(C2)N3Cc2ccc(F)cc2F)nc2nc(-c3ccco3)nn12 [Example 50, ((S)-1-(7-amino-2-(furan-2-yl)-[1,2,4]triazolo[1,5-a][1,3,5]triazin-5-yl)pyrrolidin-2-yl)(8-(2,4-difluorobenzyl)-3,8-diazabicyclo[3.2.1]octan-3-yl)methanone]",9
7,"Nc1nc(N2CCC[C@H]2C(=O)N2CC3(CN(CC(F)(F)F)C3)C2)nc2nc(-c3ccco3)nn12 [Example 345, (S)-(1-(7-amino-2-(furan-2-yl)-[1,2,4]triazolo[1,5-a][1,3,5]triazin-5-yl)pyrrolidin-2-yl)(6-(2,2,2-trifluoroethyl)-2,6-diazaspiro[3.3]heptan-2-yl)methanone]",13
8,"Nc1nc(N2CCC[C@H]2C(=O)N2CC3CCC(C2)N3CC(F)(F)F)nc2nc(-c3ccco3)nn12 [Example 204, ((S)-1-(7-amino-2-(furan-2-yl)-[1,2,4]triazolo[1,5-a][1,3,5]triazin-5-yl)pyrrolidin-2-yl)(8-(2,2,2-trifluoroethyl)-3,8-diazabicyclo[3.2.1]octan-3-yl)methanone]",13
9,"Nc1nc(N2CC[C@H]2C(=O)N2CCN(CCCC(F)(F)F)CC2)nc2nc(-c3ccco3)nn12 [Example 264, (S)-(1-(7-amino-2-(furan-2-yl)-[1,2,4]triazolo[1,5-a][1,3,5]triazin-5-yl)azetidin-2-yl)(4-(4,4,4-trifluorobutyl)piperazin-1-yl)methanone]",10
10,"Nc1nc(N[C@H](C(=O)N2CCN(CC(F)F)CC2)C2CC2)nc2nc(-c3ccco3)nn12 [Example 354, (S)-2-((7-amino-2-(furan-2-yl)-[1,2,4]triazolo[1,5-a][1,3,5]triazin-5-yl)amino)-2-cyclopropyl-1-(4-(2,2-difluoroethyl)piperazin-1-yl)ethan-1-one]",22
11,"C[C@@H]1CN(C(=O)c2ccccc2)CCN1C(=O)[C@@H]1CCCN1c1nc(N)n2nc(-c3ccco3)nc2n1 [Example 159, ((R)-4-((7-amino-2-(furan-2-yl)-[1,2,4]triazolo[1,5-a][1,3,5]triazin-5-yl)-L-prolyl)-3-methylpiperazin-1-yl)(phenyl)methanone]",9
12,"CCCCN1CCN(C(=O)[C@@H]2CCCN2c2cc3nc(-c4ccco4)nn3c(N)n2)CC1 [Example 361, (S)-(1-(5-amino-2-(furan-2-yl)-[1,2,4]triazolo[1,5-c]pyrimidin-7-yl)pyrrolidin-2-yl)(4-butylpiperazin-1-yl)methanone]",9
13,"C[C@@H]1CN(CC(C)(F)F)CCN1C(=O)[C@@H]1CCCN1c1nc(N)n2nc(-c3ccco3)nc2n1 [Example 372, ((S)-1-(7-amino-2-(furan-2-yl)-[1,2,4]triazolo[1,5-a][1,3,5]triazin-5-yl)pyrrolidin-2-yl)((R)-4-(2,2-difluoropropyl)-2-methylpiperazin-1-yl) methanone]",1

# Other lines, results leading:
row,IC50 [nM],Structure (SMILES)
1,13,"Nc1nc(N2CCC[C@H]2C(=O)N2CCC(C(=O)N3CCCCC3)CC2)nc2nc(-c3ccco3)nn12 [Example 142, (1-((7-amino-2-(furan-2-yl)-[1,2,4]triazolo[1,5-a][1,3,5]triazin-5-yl)-L-prolyl)piperidin-4-yl)(piperidin-1-yl)methanone]"
2,5,"Nc1nc(N2CCC[C@H]2C(=O)N2CCN(CC3(C(F)(F)F)CCC3)CC2)nc2nc(-c3ccco3)nn12 [Example 284, (S)-(1-(7-amino-2-(furan-2-yl)-[1,2,4]triazolo[1,5-a][1,3,5]triazin-5-yl)pyrrolidin-2-yl)(4-((1-(trifluoromethyl)cyclobutyl)methyl)piperazin-1-yl)methanone]"
3,7,"Nc1nc(N2CCC[C@H]2C(=O)N2CCN(CC(F)F)CC2)nc2nc(-c3ccco3)nn12 [Example 223, (S)-(1-(7-amino-2-(furan-2-yl)-[1,2,4]triazolo[1,5-a][1,3,5]triazin-5-yl)pyrrolidin-2-yl)(4-(2,2-difluoroethyl)piperazin-1-yl)methanone]"
4,9,"Nc1nc(N2CCC[C@H]2C(=O)N2CCN(C3COC3)CC2)nc2nc(-c3ccco3)nn12 [Example 403, (S)-(1-(7-amino-2-(furan-2-yl)-[1,2,4]triazolo[1,5-a][1,3,5]triazin-5-yl)pyrrolidin-2-yl)(4-(oxetan-3-yl)piperazin-1-yl)methanone]"
5,11,"CCC(O)(CC)CN1CCN(C(=O)[C@@H]2CCCN2c2nc(N)n3nc(-c4ccco4)nc3n2)CC1 [Example 42, (S)-(1-(7-amino-2-(furan-2-yl)-[1,2,4]triazolo[1,5-a][1,3,5]triazin-5-yl)pyrrolidin-2-yl)(4-(2-ethyl-2-hydroxybutyl)piperazin-1-yl)methanone]"
6,1,COc1cccc(C(=O)N2CCN(C(=O)[C@@H]3CCCN3c3nc(N)n4nc(-c5ccco5)nc4n3)CC2)c1 [Example 63]
7,10,"CC(C)(C)C1CCC(N2CCN(C(=O)[C@@H]3CCCN3c3nc(N)n4nc(-c5ccco5)nc4n3)CC2)CC1 (stereo partly drawn) [Example 154, (S)-(1-(7-amino-2-(furan-2-yl)-[1,2,4]triazolo[1,5-a][1,3,5]triazin-5-yl)pyrrolidin-2-yl)(4-(4-(tert-butyl)cyclohexyl)piperazin-1-yl)methanone]"
8,1,"CCC(C)S(=O)(=O)N1CCN(C(=O)[C@@H]2CCCN2c2nc(N)n3nc(-c4ccco4)nc3n2)CC1 (stereo partly drawn) [Example 72, ((S)-1-(7-amino-2-(furan-2-yl)-[1,2,4]triazolo[1,5-a][1,3,5]triazin-5-yl)pyrrolidin-2-yl)(4-(sec-butylsulfonyl)piperazin-1-yl)methanone]"
